Experimental data as given in patent publication US12103920B2, “Cereblon binding compounds, compositions thereof, and methods of treatment therewith” (Celgene Corporation, priority 2020, dated 2024).
Where a name gives a salt, the structure may show the parent alone.

Molecular target: T1, AR protein in VCaP cells (Homo sapiens, UniProt P10275)
T1 construct: endogenous in cells; host or cells: VCaP cells
T1 sequence (P10275 1-920): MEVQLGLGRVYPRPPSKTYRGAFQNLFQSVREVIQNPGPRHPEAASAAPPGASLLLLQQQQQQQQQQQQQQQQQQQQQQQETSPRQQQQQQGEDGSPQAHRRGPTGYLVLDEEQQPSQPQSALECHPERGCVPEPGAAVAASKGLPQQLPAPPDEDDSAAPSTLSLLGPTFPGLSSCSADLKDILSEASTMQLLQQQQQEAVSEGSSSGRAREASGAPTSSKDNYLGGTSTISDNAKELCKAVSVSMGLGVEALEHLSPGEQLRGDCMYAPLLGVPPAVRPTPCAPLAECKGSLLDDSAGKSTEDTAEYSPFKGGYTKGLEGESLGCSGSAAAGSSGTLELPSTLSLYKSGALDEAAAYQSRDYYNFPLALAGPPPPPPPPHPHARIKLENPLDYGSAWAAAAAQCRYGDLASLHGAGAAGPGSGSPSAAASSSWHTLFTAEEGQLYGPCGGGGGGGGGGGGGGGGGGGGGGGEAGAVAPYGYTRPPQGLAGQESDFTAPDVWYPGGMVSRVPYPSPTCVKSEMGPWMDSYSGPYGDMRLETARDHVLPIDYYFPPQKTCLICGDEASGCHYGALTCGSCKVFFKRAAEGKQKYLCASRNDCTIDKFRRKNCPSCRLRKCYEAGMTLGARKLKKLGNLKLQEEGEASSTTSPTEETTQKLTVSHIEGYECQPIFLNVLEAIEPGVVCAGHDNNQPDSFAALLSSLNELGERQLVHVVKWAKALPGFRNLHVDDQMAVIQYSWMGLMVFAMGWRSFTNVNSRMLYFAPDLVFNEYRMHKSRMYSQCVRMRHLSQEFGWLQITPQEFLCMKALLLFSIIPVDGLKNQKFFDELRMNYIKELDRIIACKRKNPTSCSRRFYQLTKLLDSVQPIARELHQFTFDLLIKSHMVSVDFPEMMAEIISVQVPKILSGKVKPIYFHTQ
Assay: VCAP AR Degradation Assay
Format: cell-based
Conditions: 24 h, AR ELISA; for DC50: concentration at 50% of DMSO control (50% AR degradation); for Y: lowest measured AR level normalized to DMSO control
Experimental: VCAP AR Degradation Assay. Test compounds were pre-dispensed into a Corning CellBind 96-well clear bottom plate (Cat #3300) using an acoustic dispenser to make a 10-point concentration series at 1:3 dilution for each compound. The final top concentration of each compound was 5 μM. DMSO at a final concentration of 0.1% was used as a control. VCaP cells cultured in DMEM with 8% fetal bovine serum (FBS) were seeded at 50K cells per well in a 200 μL volume into the compound plate and incubated at 37° C. in a CO2 incubator for 24 h. The medium was carefully removed from the cells and the plate was placed on ice. One hundred μL of ice-cold 1× cell lysis buffer from Cell Signaling Technologies (Cat #9803) was added to each well of the cells and the plate was incubated at 4° C. on a shaker for 1 h. Fifteen μL of cell lysate was used for AR ELISA detection using a PathScan Total Sandwich AR ELISA kit (Cell Signaling Technology, Cat #12580). AR levels in compound-treated wells were normalized to that of DMSO control and expressed as percent of control (PoC) (y). A Four Parameter Logistic Model (Sigmoidal Dose-Response Model) was used to determine the compound's DC50, and EC50, using the following equation: y=(A+((B−A)/(1+((C/x)^D)))) • A=YMin (lowest AR level normalized to DMSO control in response to compound treatment, as determined by curve fit) • B=YMax (maximum AR level as determined by curve fit) • C=EC50 • D=Hill Slope • x=compound concentration • EC50=the concentration of compound when y=(YMax−YMin)/2 • DC50=the concentration of the compound when y=50% of DMSO control (50% AR degradation) • y=AR protein level normalized to DMSO control
The lowest measured AR level normalized to DMSO control in response to compound treatment, termed Y value, was used to characterize the compound-mediated AR degradation efficiency.

Question: Which results are given for `CC1(C)C(=O)N(c2cnc(C#N)c(C(F)(F)F)c2)C(=S)N1[C@H]1CC[C@H](OCCN2CCN(CC(=O)Nc3cc(F)cc(NC4CCC(=O)NC4=O)c3)[C@@H](C(F)(F)F)C2)CC1` (stereo partly drawn) [Cmpd 24, 2-((R)-4-(2-(((trans)-4-(3-(6-Cyano-5-(trifluoromethyl)pyridin-3-yl)-5,5-dimethyl-4-oxo-2-thioxoimidazolidin-1-yl)cyclohexyl)oxy)ethyl)-2-(trifluoromethyl)piperazin-1-yl)-N-(3-((2,6-dioxopiperidin-3-yl)amino)-5-fluorophenyl)acetamide]?
Answer: DC50: ≤ 5 nM; Y: * (0<Y≤15%)

Question: Which results are given for `CC1(C)C(=O)N(c2ccc(C#N)c(C(F)(F)F)c2)C(=S)N1[C@H]1CC[C@H](OCCC2CCN(CC(=O)Nc3cccc(NC4CCC(=O)NC4=O)c3)CC2(F)F)CC1` (stereo partly drawn) [Cmpd 44, 2-(4-(2-(((trans)-4-(3-(4-Cyano-3-(trifluoromethyl)phenyl)-5,5-dimethyl-4-oxo-2-thioxoimidazolidin-1-yl)cyclohexyl)oxy)ethyl)-3,3-difluoropiperidin-1-yl)-N-(3-((2,6-dioxopiperidin-3-yl)amino)phenyl)acetamide]?
Answer: DC50: 5 to 10 nM; Y: * (0<Y≤15%)

Question: `C[C@@H]1CN(CCO[C@H]2CC[C@H](N3C(=S)N(c4cnc(C#N)c(Cl)c4)C(=O)C3(C)C)CC2)C[C@H](C)N1CC(=O)Nc1cccc(NC2CCC(=O)NC2=O)c1` (some centres unmarked) [Cmpd 8, hydrochloride] was tested. Which DC50 did it give?
Answer: Its DC50 is 5 to 10 nM.

Question: And the Y?
Answer: Its Y is “*** (25%<Y<50%)”.

Question: What does the source list for `CC1(C)C(=O)N(c2cnc(C#N)c(C(F)(F)F)c2)C(=S)N1[C@H]1CC[C@H](OCCN2CCN(CC(=O)Nc3cc(C#N)cc(NC4CCC(=O)NC4=O)c3)[C@@H](C(F)(F)F)C2)CC1` (stereo partly drawn) [Cmpd 31, N-(3-Cyano-5-((2,6-dioxopiperidin-3-yl)amino)phenyl)-2-((R)-4-(2-(((trans)-4-(3-(6-cyano-5-(trifluoromethyl)pyridin-3-yl)-5,5-dimethyl-4-oxo-2-thioxoimidazolidin-1-yl)cyclohexyl)oxy)ethyl)-2-(trifluoromethyl)piperazin-1-yl)acetamide]?
Answer: DC50: ≤ 5 nM; Y: * (0<Y≤15%)

Question: `C[C@@H]1CN(CCC[C@H]2CC[C@H](N3C(=S)N(c4cnc(C#N)c(C(F)(F)F)c4)C(=O)C3(C)C)CC2)C[C@H](C)N1CC(=O)Nc1cccc(NC2CCC(=O)NC2=O)c1` (stereo partly drawn) [Cmpd 11, 2-((2R,6S)-4-(3-(trans-4-(3-(6-Cyano-5-(trifluoromethyl)pyridin-3-yl)-5,5-dimethyl-4-oxo-2-thioxoimidazolidin-1-yl)cyclohexyl)propyl)-2,6-dimethylpiperazin-1-yl)-N-(3-((2,6-dioxopiperidin-3-yl)amino)phenyl)acetamide hydrochloride] was tested. Which DC50 did it give?
Answer: Its DC50 is no more than 5 nM.

Question: What about the Y of the same compound?
Answer: The Y was “* (0<Y≤15%)”.

Question: For `C[C@@H]1CN(CCO[C@H]2CC[C@H](N3C(=S)N(c4cnc(C#N)c(C(F)(F)F)c4)C(=O)C3(C)C)CC2)C[C@H](C)N1CC(=O)Nc1cccc(N[C@@H]2CCC(=O)NC2=O)c1` [Cmpd 48, 2-((2R,6S)-4-(2-(((trans)-4-(3-(6-Cyano-5-(trifluoromethyl)pyridin-3-yl)-5,5-dimethyl-4-oxo-2-thioxoimidazolidin-1-yl)cyclohexyl)oxy)ethyl)-2,6-dimethylpiperazin-1-yl)-N-(3-(((R)-2,6-dioxopiperidin-3-yl)amino)phenyl)acetamide], which DC50 is on record?
Answer: Its DC50 is less than 1000 nM.

Question: And the Y?
Answer: Its Y is “* (0<Y≤15%)”.

Question: Which results are given for `C[C@@H]1CN(CCC[C@H]2CC[C@H](N3C(=S)N(c4ccc(C#N)c(C(F)(F)F)c4)C(=O)C3(C)C)CC2)C[C@H](C)N1CC(=O)Nc1cccc(N[C@H]2CCC(=O)NC2=O)c1` [Cmpd 18, 2-((2R,6S)-4-(3-(trans-4-(3-(4-Cyano-3-(trifluoromethyl)phenyl)-5,5-dimethyl-4-oxo-2-thioxoimidazolidin-1-yl)cyclohexyl)propyl)-2,6-dimethylpiperazin-1-yl)-N-(3-(((S)-2,6-dioxopiperidin-3-yl)amino)phenyl)acetamide]?
Answer: DC50: 10 to 100 nM; Y: ** (15%<Y≤20%)

Question: `C[C@@H]1CN(CCCC[C@H]2CC[C@H](N3C(=S)N(c4ccc(C#N)c(C(F)(F)F)c4)C(=O)C3(C)C)CC2)C[C@H](C)N1CC(=O)Nc1cccc(NC2CCC(=O)NC2=O)c1` (stereo partly drawn) [Cmpd 17, 2-((2R,6S)-4-(4-(trans-4-(3-(4-Cyano-3-(trifluoromethyl)phenyl)-5,5-dimethyl-4-oxo-2-thioxoimidazolidin-1-yl)cyclohexyl)butyl)-2,6-dimethylpiperazin-1-yl)-N-(3-((2,6-dioxopiperidin-3-yl)amino)phenyl)acetamide hydrochloride] was tested. Which DC50 did it give?
Answer: The DC50 was 10 to 100 nM.

Question: What about the Y of the same compound?
Answer: Its Y is “*** (25%<Y<50%)”.

Question: Which DC50 does the source give for `CC1(C)C(=O)N(c2ccc(C#N)c(C(F)(F)F)c2)C(=S)N1[C@H]1CC[C@H](OCCN2CCN(CC(=O)Nc3cc(F)cc(NC4CCC(=O)NC4=O)c3)[C@@H](C(F)(F)F)C2)CC1` (stereo partly drawn) [Cmpd 23, 2-((R)-4-(2-(((trans)-4-(3-(4-Cyano-3-(trifluoromethyl)phenyl)-5,5-dimethyl-4-oxo-2-thioxoimidazolidin-1-yl)cyclohexyl)oxy)ethyl)-2-(trifluoromethyl)piperazin-1-yl)-N-(3-((2,6-dioxopiperidin-3-yl)amino)-5-fluorophenyl)acetamide] here?
Answer: The DC50 was 5 to 10 nM.

Question: What about the Y of the same compound?
Answer: The Y was “* (0<Y≤15%)”.

Question: Which DC50 does the source give for `C[C@@H]1C[C@H](CCO[C@H]2CC[C@H](N3C(=S)N(c4cnc(C#N)c(C(F)(F)F)c4)C(=O)C3(C)C)CC2)C[C@H](C)N1CC(=O)Nc1cccc(NC2CCC(=O)NC2=O)c1` (stereo partly drawn) [Cmpd 21, 2-((2S,4r,6R)-4-(2-((trans-4-(3-(6-Cyano-5-(trifluoromethyl)pyridin-3-yl)-5,5-dimethyl-4-oxo-2-thioxoimidazolidin-1-yl)cyclohexyl)oxy)ethyl)-2,6-dimethylpiperidin-1-yl)-N-(3-((2,6-dioxopiperidin-3-yl)amino)phenyl)acetamide] here?
Answer: The DC50 was no more than 5 nM.

Question: And the Y?
Answer: The Y was “* (0<Y≤15%)”.

Question: With `C[C@@H]1CN(CCC[C@H]2CC[C@H](N3C(=S)N(c4ccc(C#N)c(C(F)(F)F)c4)C(=O)C3(C)C)CC2)C[C@H](C)N1CC(=O)Nc1cc(NC2CCC(=O)NC2=O)ccc1F` (stereo partly drawn) [Cmpd 39, 2-((2R,6S)-4-(3-((trans)-4-(3-(4-Cyano-3-(trifluoromethyl)phenyl)-5,5-dimethyl-4-oxo-2-thioxoimidazolidin-1-yl)cyclohexyl)propyl)-2,6-dimethylpiperazin-1-yl)-N-(5-((2,6-dioxopiperidin-3-yl)amino)-2-fluorophenyl)acetamide] as the compound, how does the DC50 read?
Answer: The DC50 was 10 to 100 nM.

Question: What about the Y of the same compound?
Answer: Its Y is “*** (25%<Y<50%)”.

Question: What does the source list for `C[C@@H]1C[C@H](OCCC[C@H]2CC[C@H](N3C(=S)N(c4cnc(C#N)c(C(F)(F)F)c4)C(=O)C3(C)C)CC2)C[C@H](C)N1CC(=O)Nc1cccc(NC2CCC(=O)NC2=O)c1` (stereo partly drawn) [Cmpd 33, 2-((2R,4r,6S)-4-(3-((trans)-4-(3-(6-Cyano-5-(trifluoromethyl)pyridin-3-yl)-5,5-dimethyl-4-oxo-2-thioxoimidazolidin-1-yl)cyclohexyl)propoxy)-2,6-dimethylpiperidin-1-yl)-N-(3-((2,6-dioxopiperidin-3-yl)amino)phenyl)acetamide hydrochloride]?
Answer: DC50: 5 to 10 nM; Y: ** (15%<Y≤20%)

Question: For `CC1(C)C(=O)N(c2ccc(C#N)c(C(F)(F)F)c2)C(=S)N1[C@H]1CC[C@H](OCCN2CCN(CC(=O)Nc3cccc(NC4CCC(=O)NC4=O)c3)[C@@H](C(F)(F)F)C2)CC1` (stereo partly drawn) [Cmpd 19, 2-((R)-4-(2-((trans-4-(3-(4-Cyano-3-(trifluoromethyl)phenyl)-5,5-dimethyl-4-oxo-2-thioxoimidazolidin-1-yl)cyclohexyl)oxy)ethyl)-2-(trifluoromethyl)piperazin-1-yl)-N-(3-((2,6-dioxopiperidin-3-yl)amino)phenyl)acetamide hydrochloride], which DC50 is on record?
Answer: The DC50 was 5 to 10 nM.

Question: And the Y?
Answer: The Y was “* (0<Y≤15%)”.
